Results from patent US12286402B2, “Compounds and their use for the treatment of alpha1-antitrypsin deficiency” (CENTESSA PHARMACEUTICALS (UK) LIMITED, priority 2019, dated 2025).

These compounds were tested against T1, human Z A1AT (Homo sapiens, UniProt P01009, E366K) (assay: A1AT cell secretion assay using HEK-Z cells (A1AT ELISA of supernatants)). Settings: 48 h, supernatant A1AT by ELISA.
T1 construct: expressed in transfected cells; host or cells: HEK-Z cells (human embryonic kidney cell line stably transfected with the human Z A1AT gene)
T1 sequence (P01009 25-418 E366K): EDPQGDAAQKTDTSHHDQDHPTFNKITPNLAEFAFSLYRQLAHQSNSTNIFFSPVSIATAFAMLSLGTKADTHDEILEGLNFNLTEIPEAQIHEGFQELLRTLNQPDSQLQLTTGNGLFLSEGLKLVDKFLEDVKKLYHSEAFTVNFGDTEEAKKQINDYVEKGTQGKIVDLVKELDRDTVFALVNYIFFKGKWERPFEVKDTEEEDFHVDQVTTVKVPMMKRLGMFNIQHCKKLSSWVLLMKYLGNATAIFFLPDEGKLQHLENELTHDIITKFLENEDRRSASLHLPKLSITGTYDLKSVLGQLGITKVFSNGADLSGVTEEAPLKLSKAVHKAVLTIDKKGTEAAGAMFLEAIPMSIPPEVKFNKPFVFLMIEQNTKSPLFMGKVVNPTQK
Type: cell-based
Description: HEK-Z cells, a human embryonic kidney cell line stably transfected with the human Z A1AT gene, were plated into 96 well plates (3.0×10^5 cells/ml with 200 μl of media/well) overnight at 37° C. in a humidified atmosphere containing 5% CO2. Following incubation cells were washed with 200 μl serum-free media three times and media was replaced with treatments in quadruplicate using serum free media containing either vehicle, 10 μM suberanilohydroxamic acid (SAHA) or a compound of the invention (at concentrations of 10, 33, 100 and 333 nM) for 48 h in a 37° C. incubator in a final volume of 200 μl. At the end of the incubation step the supernatants were removed from the wells, centrifuged at 1000×g at 4° C. for 10 min and were assayed for human A1AT levels by ELISA (Human Serpin A1/α1-antitrypsin duo set ELISA, R& D Systems, DY1268) per manufacturer's instructions.
Briefly, a 96 well plate was coated with human A1AT capture antibody overnight at room temperature (1:180 dilution from stock, 100 μl final volume/well). The capture antibody was then removed and wells washed three times with 300 μl wash buffer (0.05% Tween 20 in PBS) and then 200 μl reagent diluent ([…]) was incubated in each well for 1 h at room temperature. Diluted samples, standards (125, 250, 500, 1000, 2000, 4000 and 8000 pg/ml A1AT) or blanks were then added to each well in duplicate and the plates were covered with a plate sealer and left at room temperature for 2 h. At the end of the sample incubation step, samples were removed and all wells washed as previously and 100 μl detection antibody (1:180 dilution from stock) was added to each well and incubated for a further 2 h at room temperature. Following incubation with detection antibody, supernatant was removed and wells were washed as previously and 100 μl streptavidin-HRP solution (1:200 dilution from stock) was added to each well for 20 min in the dark. After which, 50 μl stop solution (2M H2SO4) was added and optical density (OD) of each well was read at 450 nm with 570 nm blank subtracted from each well using a microplate reader. A 4 parameter logistic curve was constructed using GraphPad Prism 7 and A1AT concentrations were determined in each sample by interpolation from a standard curve and multiplying by the appropriate dilution factor.

SMILES | Median A1AT % increase over vehicle at 300 nM
CN(C)C(=O)c1ccc(Cn2ccccc2=O)cc1 [Example 1, N,N-dimethyl-4-((2-oxopyridin-1(2H)-yl)methyl)benzamide] | 125%
CN(Cc1ccccc1)C(=O)c1ccc(Cn2ccccc2=O)cc1 [Example 4, N-benzyl-N-methyl-4-((2-oxopyridin-1(2H)-yl)methyl)benzamide] | 142%
CCN(C)C(=O)c1ccc(Cn2ccccc2=O)cc1 [Example 2, N-ethyl-N-methyl-4-((2-oxopyridin-1(2H)-yl)methyl)benzamide] | 147%
CC(C)N(C)C(=O)c1ccc(Cn2ccccc2=O)cc1 [Example 3, N-isopropyl-N-methyl-4-((2-oxopyridin-1(2H)-yl)methyl)benzamide] | 134%
CN(CC(F)(F)F)C(=O)c1ccc(Cn2ccccc2=O)cc1 [Example 5, N-methyl-4-((2-oxopyridin-1(2H)-yl)methyl)-N-(2,2,2-trifluoroethyl)benzamide] | 129%
